Measured values reported in patent US10723707B2, “Heterocyclic substituted 2-amino quinazoline derivatives for the treatment of viral infections” (JANSSEN SCIENCES IRELAND UNLIMITED COMPANY, priority 2012, dated 2020).

Key:
Format in all cases: cell-based
human TLR7 = molecular target: T1, human TLR7 (Homo sapiens, UniProt Q9NYK1); experiment: TLR7 cellular NFκB-luc reporter assay in transiently transfected HEK293 cells; settings: lowest effective concentration, 6 hours incubation
T1 construct: expressed in transfected cells; host or cells: HEK293
T1 sequence (Q9NYK1 27-1049): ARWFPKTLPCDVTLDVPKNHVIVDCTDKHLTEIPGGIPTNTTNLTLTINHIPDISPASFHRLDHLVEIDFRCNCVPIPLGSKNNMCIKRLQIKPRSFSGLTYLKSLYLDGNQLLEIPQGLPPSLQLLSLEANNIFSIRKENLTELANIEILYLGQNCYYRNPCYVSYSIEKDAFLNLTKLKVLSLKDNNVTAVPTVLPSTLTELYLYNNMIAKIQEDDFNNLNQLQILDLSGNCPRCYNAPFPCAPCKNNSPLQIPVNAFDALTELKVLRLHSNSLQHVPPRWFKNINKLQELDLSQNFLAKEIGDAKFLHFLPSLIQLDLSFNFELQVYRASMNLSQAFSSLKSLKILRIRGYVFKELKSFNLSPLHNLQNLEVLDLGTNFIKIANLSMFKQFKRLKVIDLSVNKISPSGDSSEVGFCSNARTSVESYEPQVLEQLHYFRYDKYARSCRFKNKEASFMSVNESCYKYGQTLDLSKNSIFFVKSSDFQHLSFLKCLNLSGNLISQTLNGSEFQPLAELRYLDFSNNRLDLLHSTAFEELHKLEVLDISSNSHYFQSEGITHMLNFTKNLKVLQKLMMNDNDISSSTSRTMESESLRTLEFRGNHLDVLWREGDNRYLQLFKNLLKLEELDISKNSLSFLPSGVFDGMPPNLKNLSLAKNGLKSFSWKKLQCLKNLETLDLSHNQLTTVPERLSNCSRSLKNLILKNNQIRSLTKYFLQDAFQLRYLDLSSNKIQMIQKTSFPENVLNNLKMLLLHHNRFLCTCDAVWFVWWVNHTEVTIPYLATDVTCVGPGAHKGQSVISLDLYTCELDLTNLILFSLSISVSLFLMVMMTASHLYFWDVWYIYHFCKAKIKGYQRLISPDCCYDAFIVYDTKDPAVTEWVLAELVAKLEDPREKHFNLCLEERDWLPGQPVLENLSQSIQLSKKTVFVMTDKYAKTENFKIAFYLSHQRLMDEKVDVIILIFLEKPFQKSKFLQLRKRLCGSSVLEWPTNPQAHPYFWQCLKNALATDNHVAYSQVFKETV
Method: (§1) The ability of compounds to activate human TLR7 and/or TLR8 was assessed in a cellular reporter assay using HEK293 cells transiently transfected with a TLR7 or TLR8 expression vector and NFκB-luc reporter construct.
(§2) Briefly, HEK293 cells were grown in culture medium (DMEM supplemented with 10% FCS and 2 mM Glutamine). For transfection of cells in 15 cm dishes, cells were detached with Trypsin-EDTA, transfected with a mix of CMV-TLR7 or TLR8 plasmid (1700 ng), NFκB-luc plasmid (850 ng) and a transfection reagent and incubated for 48 h at 37° C. in a humidified 5% CO2 atmosphere. Transfected cells were then washed in PBS, detached with Trypsin-EDTA and resuspended in medium to a density of 1.25×10^5 cells/mL. Forty microliters of cells were then dispensed into each well in 384-well plates, where 200 nL of compound in 100% DMSO was already present. Following 6 hours incubation at 37° C., 5% CO2, the luciferase activity was determined by adding 15 μL of Steady Lite Plus substrate (Perkin Elmer) to each well and readout performed on a ViewLux ultraHTS microplate imager (Perkin Elmer). Dose response curves were generated from measurements performed in quadruplicates. Lowest effective concentrations (LEC) values, defined as the concentration that induces an effect which is at least two fold above the standard deviation of the assay, were determined for each compound.

[1] = test system: interferon-stimulated responsive elements (ISRE); experiment: Activation of ISRE promoter elements in HEK-ISREluc cells by conditioned media from PBMC; settings: Homo sapiens, compound concentration applied to PBMCs, supernatant transferred to HEK-ISREluc cells, 24 hours, read-out: HEK-ISRE luc (LEC)
Method: The potential of compounds to induce IFN-I was also evaluated by measuring the activation of interferon-stimulated responsive elements (ISRE) by conditioned media from PBMC. The ISRE element of sequence GAAACTGAAACT (SEQ ID: 1) is highly responsive to the STAT1-STAT2-IRF9 transcription factor, activated upon binding of IFN-I to their receptor IFNAR (Clontech, PT3372-5W). The plasmid pISRE-Luc from Clontech (ref. 631913) contains 5 copies of this ISRE element, followed by the firefly luciferase ORF. A HEK293 cell line stably transfected with pISRE-Luc (HEK-ISREluc) was established to profile the conditioned PBMC cell culture media.
Briefly, PBMCs were prepared from buffy coats of at least two donors using a standard Ficoll centrifugation protocol. Isolated PBMCs were resuspended in RPMI medium supplemented with 10% human AB serum and 2×10^5 cells/well were dispensed into 384-well plates containing compounds (70 μL total volume). After overnight incubation, 10 μL of supernatant was transferred to 384-well plates containing 5×10^3 HEK-ISREluc cells/well in 30 μL (plated the day before). Following 24 hours of incubation, activation of the ISRE elements was measured by assaying luciferase activity using 40 μL/well Steady Lite Plus substrate (Perkin Elmer) and measured with ViewLux ultraHTS microplate imager (Perkin Elmer). The stimulating activity of each compound on the HEK-ISREluc cells was reported as LEC value, defined as the compound concentration applied to the PBMCs resulting in a luciferase activity at least two fold above the standard deviation of the assay. The LEC in turn indicates the degree of ISRE activation on transfer of a defined amount of PBMC culture medium. Recombinant interferon α-2a (Roferon-A) was used as a standard control compound.

human TLR8 = molecular target: T2, human TLR8 (Homo sapiens, UniProt Q9NR97); experiment: TLR8 cellular NFκB-luc reporter assay in transiently transfected HEK293 cells; settings: lowest effective concentration, 6 hours incubation
T2 construct: expressed in transfected cells; host or cells: HEK293
T2 sequence (Q9NR97 27-1041): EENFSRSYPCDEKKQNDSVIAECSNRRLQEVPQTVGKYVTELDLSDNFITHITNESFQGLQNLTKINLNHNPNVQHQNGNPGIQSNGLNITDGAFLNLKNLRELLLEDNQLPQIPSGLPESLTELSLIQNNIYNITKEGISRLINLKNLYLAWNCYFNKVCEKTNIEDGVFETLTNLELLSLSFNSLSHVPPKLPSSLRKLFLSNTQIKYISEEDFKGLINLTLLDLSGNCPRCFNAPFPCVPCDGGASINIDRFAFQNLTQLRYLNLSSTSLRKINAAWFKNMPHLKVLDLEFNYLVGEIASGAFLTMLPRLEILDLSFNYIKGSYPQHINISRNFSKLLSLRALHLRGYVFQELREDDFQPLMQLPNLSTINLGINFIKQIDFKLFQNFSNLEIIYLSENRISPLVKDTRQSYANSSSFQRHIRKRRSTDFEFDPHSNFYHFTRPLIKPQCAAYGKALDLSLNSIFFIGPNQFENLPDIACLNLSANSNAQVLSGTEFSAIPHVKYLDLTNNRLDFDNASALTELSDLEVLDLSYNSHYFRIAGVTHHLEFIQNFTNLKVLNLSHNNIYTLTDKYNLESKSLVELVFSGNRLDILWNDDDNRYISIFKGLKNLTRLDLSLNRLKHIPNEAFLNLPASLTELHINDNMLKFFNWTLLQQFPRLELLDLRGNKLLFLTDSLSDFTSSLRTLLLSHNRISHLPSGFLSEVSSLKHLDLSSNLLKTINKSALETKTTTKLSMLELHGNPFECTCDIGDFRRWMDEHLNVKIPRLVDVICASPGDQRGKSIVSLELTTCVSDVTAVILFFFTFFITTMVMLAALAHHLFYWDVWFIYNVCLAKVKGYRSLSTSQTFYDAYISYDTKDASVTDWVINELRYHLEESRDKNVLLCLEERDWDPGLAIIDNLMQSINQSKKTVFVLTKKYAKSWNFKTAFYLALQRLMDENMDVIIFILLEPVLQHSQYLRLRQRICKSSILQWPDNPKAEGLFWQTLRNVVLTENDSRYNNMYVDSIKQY
Method: as §1, §2

SMILES | Human TLR 7 (LEC) (human TLR7) | minimal effective concentration [1] | Human TLR 8 (LEC) (human TLR8)
Cc1ccc2c(N[C@H](C)c3ccccn3)nc(N)nc2c1 (single isomer, unassigned) [Compound 5] | 0.53 µM | 0.11 µM | 14.7 µM
CNC(=O)c1ccc2c(N[C@H](C)c3ccccn3)nc(N)nc2c1 (single isomer, unassigned) [Compound 27] | 8.24 µM | 5.04 µM | >25 µM
COCCOc1cccc2nc(N)nc(NCc3cc(C)on3)c12 [Compound 29] | 0.082 µM |  | 8.15 µM
C[C@H](Nc1nc(N)nc2cccc(F)c12)c1ccccn1 (single isomer, unassigned) [Compound 18] | 8.25 µM | 7.83 µM | 24.3 µM
COc1cccc2nc(N)nc(N[C@@H](C)[C@H](O)c3ccccc3)c12 [Compound 15] | 0.61 µM | 0.56 µM | >25 µM
COc1cccc2nc(N)nc(N[C@H](C)c3ccccn3)c12 (single isomer, unassigned) [Compound 2] | 0.94 µM | 0.49 µM | >25 µM
Cc1cc(CNc2nc(N)nc3cccc(C)c23)no1 [Compound 19] | 0.11 µM | 0.051 µM | 1.74 µM
Cc1cc(CNc2nc(N)nc3c(F)cccc23)no1 [Compound 14] | 0.65 µM | 0.13 µM | >25 µM
CCn1ncnc1[C@H](C)Nc1nc(N)nc2cccc(OC)c12 (single isomer, unassigned) [Compound 21] | 6.1 µM | 0.54 µM | 8.85 µM
COc1cccc2nc(N)nc(N[C@H](C)c3nccs3)c12 (single isomer, unassigned) [Compound 10] | 0.42 µM | 0.11 µM | 12.3 µM
Cc1cc(CNc2nc(N)nc3cc(F)ccc23)no1 [Compound 13] | 0.46 µM | 0.12 µM | 5.22 µM
CC(Nc1nc(N)nc2cc(C(=O)N(C)C(C)C)ccc12)c1ccccn1 (stereo not shown) [Compound 24] | 14.3 µM | 1.75 µM | 11.0 µM
COc1cccc2nc(N)nc(N[C@H](c3ccccn3)C(F)(F)F)c12 (single isomer, unassigned) [Compound 3] | 0.76 µM | 0.47 µM | >25 µM
C[C@@H](Nc1nc(N)nc2cc(C(=O)N3CCCC3)ccc12)c1ccccn1 (single isomer, unassigned) [Compound 28] | 2.24 µM | 1.57 µM | >25 µM
C[C@@H](Nc1nc(N)nc2ccccc12)c1ccccn1 (single isomer, unassigned) [Compound 1] | 0.72 µM | 0.61 µM | >25 µM
CCc1noc([C@@H](C)Nc2nc(N)nc3cccc(OC)c23)n1 (single isomer, unassigned) [Compound 25] | 1.95 µM | 0.49 µM | 6.62 µM
CCN(CC)C(=O)c1ccc2c(N[C@H](C)c3ccccn3)nc(N)nc2c1 (single isomer, unassigned) [Compound 26] | 2.14 µM | 7.33 µM | >25 µM
Cc1cc(CNc2nc(N)nc3cccc(CO)c23)no1 [Compound 30] | 0.63 µM | 0.14 µM | 9.0 µM
COC(=O)c1ccc2c(N[C@H](C)c3ccccn3)nc(N)nc2c1 (single isomer, unassigned) [Compound 8] | 4.94 µM | 2.11 µM | 
